Results on 2 molecules are retold here after patent publication US6664231B1, “Anti-fungal peptides” (priority 1993, dated 2003).

Like-named read-outs stand apart in the source and are kept apart here. Some results are limits rather than exact numbers.

The test system of one data set is Aspergillus ATCC 13073. In words: microbe, parasite or virus in culture. It is filed as cell-based. Conditions: Aspergillus, ATCC13073; read-out: Minimum Fungicidal Concentration, Aspergillus ATCC 13073. The method, then: (§1) The anti-fungal activity of Domain III derived peptides was evaluated against a variety of fungal species, including species of Candida. Cryptococcus, Fusarium, Trichophyton, and Aspergillus, by an additional assay protocol utilizing Alamar Blue. Alamar Blue is an indicator dye formulated to measure quantitatively the proliferation of a variety of human or animal cells, bacteria, or fungi. It consists of an oxidation-reduction (REDOX) indicator that yields a colorimetric change in response to metabolic activity. For these experiments, species of Candida and Cryptococcus were grown in Sabouraud's dextrose broth (SDB) overnight. Strains of filamentous fungi (Aspergilius, Fusanum, Trichophyton) were obtained by irrigation of a confluent culture from a petri dish. Cells were washed and adjusted to a concentration of 5.0×10^3/mL in fresh SDB. […] Controls included amphotericin B, fluconazole, ketoconazole and griseofulvin. Antifungal drugs were also diluted in the same manner. Assays were performed in 96-well microuiter plates. […] The wells to be plated were determined by OD590 readings. The lowest concentration of peptide which maintained the blue color (or OD reading) of the blank was chosen along with the next two higher concentrations. Plates were allowed to grow for 18-48 hours depending on the rate of growth of each fungus. Minimal fungicidal activity (MFC) was determined as a 99.9% killing of the starting inoculum.

The subject of data set [1] is Aspergillus niger ATCC 16404. The data set is described as follows: microbe, parasite or virus in culture. Type of data set: cell-based. To be noted: Aspergillus niger, ATCC16404; read-out: Minimum Fungicidal Concentration, Aspergillus niger ATCC 16404. The method, then:
as §1

The test system of data set [2] is Candida albicans (SLU-1 and ATCC strains). The data set is described as follows: microbe, parasite or virus in culture. It is filed as cell-based. Conditions: Candida albicans. The procedure:
as §1

For data set [3], the system named is Candida glabrata ATCC 2001. The data set is described as follows: microbe, parasite or virus in culture. Conditions: Nakaseomyces glabratus, ATCC2001; read-out: Minimum Fungicidal Concentration, Candida glabrata ATCC 2001. It is filed as cell-based. The procedure: as §1
Data set [4] has as its system Candida parapsilosis ATCC 22019. The data set is described as follows: microbe, parasite or virus in culture. Type of data set: cell-based. To be noted: Lodderomyces parapsilosis, ATCC22019; read-out: Minimum Fungicidal Concentration, Candida parapsilosis ATCC 22019. The method, then:
as §1

The test system of data set [5] is Cryptococcus neoformans ATCC 13690. The data set is described as follows: microbe, parasite or virus in culture. It is filed as cell-based. Conditions: Cryptococcus neoformans, ATCC13690; read-out: Minimum Fungicidal Concentration, Cryptococcus neoformans ATCC 13690. The procedure: as §1
The subject of data set [6] is Fusarium solani ATCC 36031. The data set is described as follows: microbe, parasite or virus in culture. It is filed as cell-based. Conditions: Fusarium solani, ATCC36031; read-out: Minimum Fungicidal Concentration, Fusarium solani ATCC 36031. The method, then:
as §1

Data set [7] relates to Trychophyton rubrum ATCC 28188. In words: organism not typed. It is filed as cell-based. Conditions: read-out: Minimum Fungicidal Concentration, Trychophyton rubrum ATCC 28188. The procedure:
as §1

The next data set has as its system gram-negative bacteria. Conditions: as low as; cited from earlier work.
Data set [8] concerns gram-positive organisms Staphylococcus aureus, Staphylococcus epidermidis, Streptococcus faecalis, Bacillus subtilis, Micrococcus lysodeikricus, Listeria …. To be noted: 10^−6 M or 160 μg/ml, pH 7.0 or 5.5; cited from earlier work.
Data set [9] deals with Candida albicans and Candida parapsilosis. Conditions: 10^−6 M, pH 7.0 or 5.5; cited from earlier work.
In data set [10] the test system is human, rabbit and sheep red blood cells and several human tumor cell lines. To be noted: cited from earlier work.

Turning to `OC(Cn1cncn1)(Cn1cncn1)c1ccc(F)cc1F` [Fluconazole, fluconazole], the MFC in the data set with Aspergillus ATCC 13073 was > 50 mg/L; in data set [1] it was > 10 mg/L; in data set [2] (ATCC10231, strain ATCC 10231, read-out: Minimum Fungicidal Concentration, Candida albicans ATCC 10231), > 10 mg/L; in data set [2] (ATCC18840, strain ATCC 18840, read-out: Minimum Fungicidal Concentration, Candida albicans ATCC 18840), > 10 mg/L; in data set [2] (ATCC26555, strain ATCC 26555, read-out: Minimum Fungicidal Concentration, Candida albicans ATCC 26555), > 10 mg/L; in [2] (ATCC44808, strain ATCC 44808, read-out: Minimum Fungicidal Concentration, Candida albicans ATCC 44808) it was > 10 mg/L. The MFC was > 10 mg/L in [2] (ATCC90028, strain ATCC 90028, read-out: Minimum Fungicidal Concentration, Candida albicans ATCC 90028); > 10 mg/L in data set [2] (strain SLU-1, read-out: Minimum Fungicidal Concentration, Candida albicans SLU-1); > 10 mg/L in [3]; > 10 mg/L in data set [4]; > 10 mg/L in data set [5]; > 10 mg/L in data set [6]. The MFC in [7] is > 10 mg/L.

B1: BPI: bactericidal/permeability-increasing protein isolated from the granules of mammalian polymorphonuclear leukocytes (protein, UniProt P17213 32-487, looked up)
Bactericidal …: VNPGVVVRISQKGLDYASQQGTAALQKELKRIKIPDYSDSFKIKHLGKGHYSFYSMDIREFQLPSSQISMVPNVGLKFSISNANIKISGKWKAQKRFLKMSGNFDLSIEGMSISADLKLGSNPTSGKPTITCSSCSSHINSVHVHISKSKVGWLIQLFHKKIESALRNKMNSQVCEKVTNSVSSELQPYFQTLPVMTKIDSVAGINYGLVAPPATTAETLDVQMKGEFYSENHHNPPPFAPPVMEFPAAHDRMVYLGLSDYFFNTAGLVYQEAGVLKMTLRDDMIPKESKFRLTTKFFGTFLPEVAKKFPNMKIQIHVSASTPPHLSVQPTGLTFYPAVDVQAFAVLPNSSLASLFLIGMHTTGSMEVSAESNRLVGELKLDRLLLELKHSNIGPFPVELLQDIMNYIVPILVLPRVNEKLQKGFPLPTPARVQLYNVVLQPHQNFLLFGADVVYK
Turning to B1, in the data set on gram-negative bacteria, the “concentration exhibiting anti-bacterial activity towards gram-negative bacteria” value is on record as 10^−8 to 10^−9 M. In data set [8], the “toxic effect on gram-positive organisms” value is listed as “no toxic effect”. In [9], the “toxic effect on fungi” value is listed as “no toxic effect”. In addition, the “toxicity to higher eukaryotic cells” value in data set [10] is “non-toxic”.
